The text below walks through data of patent US11957759B1, “Rapidly accelerated fibrosarcoma (RAF) degrading compounds and associated methods of use” (Arvinas Operations, Inc., priority 2022, dated 2024).

The target of one assay is T1, B-RAF G466V (Homo sapiens, UniProt P15056, G466V).
T1 construct: expressed in transfected cells; host or cells: T-Rex 293 cells (Invitrogen #R71007)
In words: Target protein degradation, assay D: T-Rex 293 cells, HA-BRAF_G466V, 384 well format. In kind it is cell-based. As to conditions: T-Rex 293 HA-BRAF_G466V cells, 24 hours, Examples 83-269; for DC50: Assay D; for Dmax: T-REx-293, Assay D. A digest of the protocol:
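T-Rex 293 cells stably expressing doxycycline-induced (1 ng/mL) HA-BRAF G466V treated 24 h at 37 °C with PROTACs, 11-point 1:3 dilution, 300 nM to 5 pM final, 0.5% DMSO. Fixed cells immunostained for HA and imaged by high-content microscopy; DC50 and Dmax (% of control) derived, toxicity from nuclei counts versus DMSO.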

Another assay has as its target T2, B-RAF V600E (Homo sapiens, UniProt P15056, V600E).
T2 construct: expressed in transfected cells; host or cells: T-Rex 293 cells (Invitrogen #R71007)
The experiment in a line: Target protein degradation, assay C: T-Rex 293 cells, HA-BRAF_V600E, 384 well format. As to conditions: T-Rex 293 HA-BRAF_V600E cells, 24 hours, Examples 83-269; for DC50: Assay C; for Dmax: T-REx-293, Assay C. In kind it is cell-based. The method in brief:
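T-Rex 293 cells stably expressing doxycycline-induced (1 ng/mL) HA-BRAF V600E were treated 24 h at 37 °C with compound (300 nM–5 pM, 11 points, 0.5% DMSO). HA immunofluorescence was quantified by high-content imaging to give DC50 and Dmax (% of control); nuclei counts versus DMSO gauged toxicity.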

T2 sequence (P15056 whole entry V600E): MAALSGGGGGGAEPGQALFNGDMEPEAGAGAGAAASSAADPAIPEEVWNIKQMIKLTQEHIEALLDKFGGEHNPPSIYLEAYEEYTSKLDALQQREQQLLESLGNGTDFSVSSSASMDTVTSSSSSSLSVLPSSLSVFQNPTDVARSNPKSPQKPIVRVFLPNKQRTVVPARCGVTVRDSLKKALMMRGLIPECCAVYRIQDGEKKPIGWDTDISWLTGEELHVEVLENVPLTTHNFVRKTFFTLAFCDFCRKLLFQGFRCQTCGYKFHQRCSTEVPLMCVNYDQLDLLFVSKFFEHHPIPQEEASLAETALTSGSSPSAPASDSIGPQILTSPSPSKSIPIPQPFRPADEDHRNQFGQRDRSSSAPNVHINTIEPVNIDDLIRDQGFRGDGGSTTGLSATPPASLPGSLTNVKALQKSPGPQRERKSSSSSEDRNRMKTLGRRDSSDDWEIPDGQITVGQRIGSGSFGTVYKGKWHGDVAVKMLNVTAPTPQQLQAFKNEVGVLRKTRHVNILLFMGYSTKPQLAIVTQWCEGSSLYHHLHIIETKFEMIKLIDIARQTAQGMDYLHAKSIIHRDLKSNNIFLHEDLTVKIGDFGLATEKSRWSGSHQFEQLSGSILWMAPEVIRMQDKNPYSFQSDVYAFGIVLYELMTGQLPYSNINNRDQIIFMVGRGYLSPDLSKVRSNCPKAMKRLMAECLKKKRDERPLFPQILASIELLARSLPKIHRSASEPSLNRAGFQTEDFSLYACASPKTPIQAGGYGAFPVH
T1 sequence (P15056 whole entry G466V): as the sequence (P15056 whole entry V600E) above, with G466V, E600V counted along it

As usually defined, the DC50 is the concentration giving 50% degradation. Read a low DC50 as degradation at low concentration. Broadly, the Dmax is the greatest extent of degradation seen. High values mean a fuller loss of target, low ones a partial loss of target. Consider `N#Cc1c(NS(=O)(=O)N2CC[C@@H](F)C2)ccc(F)c1Oc1ccc2ncn(-c3ccc(N4CCC(OC5CC6(C5)CN(c5ccc7c(c5)CN(C5CCC(=O)NC5=O)C7=O)C6)CC4)cc3)c(=O)c2c1` (stereo partly drawn) [Example 178, (3R)—N-{2-cyano-3-[(3-{4-[4-({2-[2-(2,6-dioxopiperidin-3-yl)-1-oxo-2,3-dihydro-1H-isoindol-5-yl]-2-azaspiro[3.3]heptan-6-yl}oxy)piperidin-1-yl]phenyl}-4-oxo-3,4-dihydroquinazolin-6-yl)oxy]-4-fluorophenyl}-3-fluoropyrrolidine-1-sulfonamide], for which the values for the DC50 on B-RAF G466V and on B-RAF V600E were 10 to 30 nM and 50 to 500 nM, respectively. Besides, the Dmax at B-RAF G466V and on B-RAF V600E was 35 to 70% each time.

On B-RAF G466V, `N#Cc1c(NS(=O)(=O)N2CC[C@@H](F)C2)ccc(F)c1Oc1ccc2ncn(-c3ccc(N4CCN(CC5CC6(C5)CN(c5ccc7c(c5)CN([C@H]5CCC(=O)NC5=O)C7=O)C6)CC4)cc3)c(=O)c2c1` [Example 179, (3R)—N-(2-cyano-3-{[3-(4-{4-[(2-{2-[(3S)-2,6-dioxopiperidin-3-yl]-1-oxo-2,3-dihydro-1H-isoindol-5-yl}-2-azaspiro[3.3]heptan-6-yl)methyl]piperazin-1-yl}phenyl)-4-oxo-3,4-dihydroquinazolin-6-yl]oxy}-4-fluorophenyl)-3-fluoropyrrolidine-1-sulfonamide] registered a DC50 of 1 to 10 nM and a Dmax of at least 70%. At B-RAF V600E, this molecule had a 50% degradation concentration (DC50) of 50 to 500 nM and a Dmax of at least 70%.

At B-RAF G466V, `N#Cc1c(NS(=O)(=O)N2CC[C@@H](F)C2)ccc(F)c1Oc1ccc2ncn(C3COC4(CCN(C(=O)CC5(O)CCN(c6ccc7c(c6)CN([C@H]6CCC(=O)NC6=O)C7=O)CC5)CC4)C3)c(=O)c2c1` (stereo partly drawn) [Example 180, (3R)—N-{2-cyano-3-[(3-{8-[2-(1-{2-[(3S)-2,6-dioxopiperidin-3-yl]-1-oxo-2,3-dihydro-1H-isoindol-5-yl}-4-hydroxypiperidin-4-yl)acetyl]-1-oxa-8-azaspiro[4.5]decan-3-yl}-4-oxo-3,4-dihydroquinazolin-6-yl)oxy]-4-fluorophenyl}-3-fluoropyrrolidine-1-sulfonamide] returned a DC50 of over 30 nM and a Dmax of 35 to 70%. Further, at B-RAF V600E, the DC50 fell in the range of 50 to 500 nM and the Dmax was in the range of 35 to 70%.

At B-RAF G466V, `CCN(C)S(=O)(=O)Nc1ccc(F)c(Oc2ccc3ncn(-c4ccc(N5CCN(CC6CN(c7ccc8c(c7)CN(C7CCC(=O)NC7=O)C8=O)C6)CC5)cc4)c(=O)c3c2)c1C#N` (centres unmarked) [Example 181, 2-[(3-{4-[4-({1-[2-(2,6-dioxopiperidin-3-yl)-1-oxo-2,3-dihydro-1H-isoindol-5-yl]azetidin-3-yl}methyl)piperazin-1-yl]phenyl}-4-oxo-3,4-dihydroquinazolin-6-yl)oxy]-6-{[ethyl(methyl)sulfamoyl]amino}-3-fluorobenzonitrile] registered a DC50 of 1 to 10 nM and a Dmax of at most 35%. On B-RAF V600E, this molecule had a DC50 of 50 to 500 nM and a Dmax of 35 to 70%.

Consider `N#Cc1c(NS(=O)(=O)N2CC[C@@H](F)C2)ccc(F)c1Oc1ccc2ncn(-c3ccc(N4CCC(CN5CC6(CC(c7ccc8c(c7)CN(C7CCC(=O)NC7=O)C8=O)C6)C5)CC4)cc3)c(=O)c2c1` (stereo partly drawn) [Example 182, (3R)-N-{2-cyano-3-[(3-(4-[4-({6-[2-(2,6-dioxopiperidin-3-yl)-1-oxo-2,3-dihydro-1H-isoindol-5-yl]-2-azaspiro[3.3]heptan-2-yl}methyl)piperidin-1-yl]phenyl}-4-oxo-3,4-dihydroquinazolin-6-yl)oxy]-4-fluorophenyl}-3-fluoropyrrolidine-1-sulfonamide], for which, on B-RAF G466V, the DC50 lay within 1 to 10 nM and the Dmax was 35 to 70%. On B-RAF V600E, this molecule yielded a DC50 of 50 to 500 nM and a Dmax of at most 35%.

At B-RAF G466V, `N#Cc1c(NS(=O)(=O)N2CC[C@@H](F)C2)ccc(F)c1Oc1ccc2ncn(-c3ccc(N4CCC(CN5CC(c6ccc([C@H]7CCC(=O)NC7=O)cc6F)C5)CC4)cc3)c(=O)c2c1` [Example 183, (3R)-N-(2-cyano-3-{[3-(4-{4-[(3-{4-[(3R)-2,6-dioxopiperidin-3-yl]-2-fluorophenyl}azetidin-1-yl)methyl]piperidin-1-yl}phenyl)-4-oxo-3,4-dihydroquinazolin-6-yl]oxy}-4-fluorophenyl)-3-fluoropyrrolidine-1-sulfonamide] gave a DC50 of over 30 nM. At B-RAF V600E, this molecule had a DC50 of 50 to 500 nM and a Dmax of 35 to 70%.

At B-RAF G466V, `N#Cc1c(NS(=O)(=O)N2CC[C@@H](F)C2)ccc(F)c1Oc1ccc2ncn(-c3ccc(N4CCC(CN5CC(c6ccc([C@@H]7CCC(=O)NC7=O)cc6F)C5)CC4)cc3)c(=O)c2c1` [Example 184, (3R)-N-(2-cyano-3-{[3-(4-{4-[(3-{4-[(3S)-2,6-dioxopiperidin-3-yl]-2-fluorophenyl}azetidin-1-yl)methyl]piperidin-1-yl}phenyl)-4-oxo-3,4-dihydroquinazolin-6-yl]oxy}-4-fluorophenyl)-3-fluoropyrrolidine-1-sulfonamide] showed a DC50 of over 30 nM. At B-RAF V600E, this molecule yielded a DC50 of 50 to 500 nM and a Dmax of at most 35%.

For `N#Cc1c(NS(=O)(=O)N2CC[C@@H](F)C2)ccc(F)c1Oc1ccc2ncn(-c3ccc(N4CCC(CN5CCN(CC6CCN(c7ccc8c(c7)CN([C@H]7CCC(=O)NC7=O)C8=O)CC6)CC5)CC4)cc3)c(=O)c2c1` [Example 185, (3R)-N-{2-cyano-3-[(3-{4-[4-({4-[(1-{2-[(3S)-2,6-dioxopiperidin-3-yl]-1-oxo-2,3-dihydro-1H-isoindol-5-yl}piperidin-4-yl)methyl]piperazin-1-yl}methyl)piperidin-1-yl]phenyl}-4-oxo-3,4-dihydroquinazolin-6-yl)oxy]-4-fluorophenyl}-3-fluoropyrrolidine-1-sulfonamide], the DC50 on B-RAF G466V was in the range of 10 to 30 nM; on B-RAF V600E, 50 to 500 nM. In addition, the Dmax on B-RAF G466V was at most 35%; at B-RAF V600E, 35 to 70%.

As for `N#Cc1c(NS(=O)(=O)N2CC[C@@H](F)C2)ccc(F)c1Oc1ccc2ncn(-c3ccc(N4CCC(CN5CCN(CC6CCN(c7ccc8c(c7)CN([C@@H]7CCC(=O)NC7=O)C8=O)CC6)CC5)CC4)cc3)c(=O)c2c1` [Example 186, (3R)-N-{2-cyano-3-[(3-{4-[4-({4-[(1-{2-[(3R)-2,6-dioxopiperidin-3-yl]-1-oxo-2,3-dihydro-1H-isoindol-5-yl}piperidin-4-yl)methyl]piperazin-1-yl}methyl)piperidin-1-yl]phenyl}-4-oxo-3,4-dihydroquinazolin-6-yl)oxy]-4-fluorophenyl}-3-fluoropyrrolidine-1-sulfonamide], the results for the DC50 at B-RAF G466V and at B-RAF V600E were 10 to 30 nM and 50 to 500 nM, respectively. The Dmax at B-RAF G466V was at most 35%; on B-RAF V600E, 35 to 70%.

On B-RAF G466V, `N#Cc1c(NS(=O)(=O)N2CC[C@@H](F)C2)ccc(F)c1Oc1ccc2ncn(-c3ccc(N4CCC(CN5CCC(c6ccc([C@H]7CCC(=O)NC7=O)cc6F)CC5)CC4)cc3)c(=O)c2c1` [Example 187, (3R)-N-(2-cyano-3-{[3-(4-{4-[(4-{4-[(3R)-2,6-dioxopiperidin-3-yl]-2-fluorophenyl}piperidin-1-yl)methyl]piperidin-1-yl}phenyl)-4-oxo-3,4-dihydroquinazolin-6-yl]oxy}-4-fluorophenyl)-3-fluoropyrrolidine-1-sulfonamide] came in with a DC50 of 1 to 10 nM and a Dmax of at most 35%. Further, at B-RAF V600E, the DC50 lay in the range of 50 to 500 nM and the Dmax is at least 70%.

As to `N#Cc1c(NS(=O)(=O)N2CC[C@@H](F)C2)ccc(F)c1Oc1ccc2ncn(-c3ccc(N4CCC(CN5CCC(c6ccc([C@@H]7CCC(=O)NC7=O)cc6F)CC5)CC4)cc3)c(=O)c2c1` [Example 188, (3R)-N-(2-cyano-3-{[3-(4-{4-[(4-{4-[(3S)-2,6-dioxopiperidin-3-yl]-2-fluorophenyl}piperidin-1-yl)methyl]piperidin-1-yl}phenyl)-4-oxo-3,4-dihydroquinazolin-6-yl]oxy}-4-fluorophenyl)-3-fluoropyrrolidine-1-sulfonamide], on B-RAF G466V, the DC50 fell in the range of 1 to 10 nM and the Dmax is 35 to 70%. Also, at B-RAF V600E, the DC50 was 50 to 500 nM and the Dmax was 35 to 70%.

On to `N#Cc1c(NS(=O)(=O)N2CC[C@@H](F)C2)ccc(F)c1Oc1ccc2ncn(-c3ccc(N4CC(CN5CCC(c6ccc7c(c6)CN([C@H]6CCC(=O)NC6=O)C7=O)CC5)C4)cc3)c(=O)c2c1` [Example 189, (3R)-N-(2-cyano-3-{[3-(4-{3-[(4-{2-[(3S)-2,6-dioxopiperidin-3-yl]-1-oxo-2,3-dihydro-1H-isoindol-5-yl}piperidin-1-yl)methyl]azetidin-1-yl}phenyl)-4-oxo-3,4-dihydroquinazolin-6-yl]oxy}-4-fluorophenyl)-3-fluoropyrrolidine-1-sulfonamide], for which the DC50 fell in the range of 1 to 10 nM at B-RAF G466V and 50 to 500 nM on B-RAF V600E. Also, the Dmax on B-RAF G466V and on B-RAF V600E was 35 to 70% throughout.

For `N#Cc1c(NS(=O)(=O)N2CC[C@@H](F)C2)ccc(F)c1Oc1ccc2ncn(-c3ccc(N4CC5(CC(CN6CCC(c7ccc8c(c7)CN(C7CCC(=O)NC7=O)C8=O)CC6)C5)C4)cc3)c(=O)c2c1` (stereo partly drawn) [Example 190, (3R)-N-{2-cyano-3-[(3-(4-[6-({4-[2-(2,6-dioxopiperidin-3-yl)-1-oxo-2,3-dihydro-1H-isoindol-5-yl]piperidin-1-yl}methyl)-2-azaspiro[3.3]heptan-2-yl]phenyl}-4-oxo-3,4-dihydroquinazolin-6-yl)oxy]-4-fluorophenyl}-3-fluoropyrrolidine-1-sulfonamide], on B-RAF G466V, the DC50 was 1 to 10 nM and the Dmax was in the range of 35 to 70%. Moreover, on B-RAF V600E, the DC50 lay in the range of 50 to 500 nM and the Dmax was 35 to 70%.
